The values below are quoted from earlier work in patent US8716482B2, “Substituted aminopiperidines as dipeptidyl peptidase-IV inhibitors for the treatment of diabetes” (Merck Sharp & Dohme Corp., priority 2009, dated 2014).

One series relates to hematopoiesis. The settings on record: mouse, cyclophosphamide-induced neutropenia.
Another series deals with DPP-4 (Homo sapiens (Human), UniProt P27487).
Chain of DPP-4 (P27487 39-766, species assumed): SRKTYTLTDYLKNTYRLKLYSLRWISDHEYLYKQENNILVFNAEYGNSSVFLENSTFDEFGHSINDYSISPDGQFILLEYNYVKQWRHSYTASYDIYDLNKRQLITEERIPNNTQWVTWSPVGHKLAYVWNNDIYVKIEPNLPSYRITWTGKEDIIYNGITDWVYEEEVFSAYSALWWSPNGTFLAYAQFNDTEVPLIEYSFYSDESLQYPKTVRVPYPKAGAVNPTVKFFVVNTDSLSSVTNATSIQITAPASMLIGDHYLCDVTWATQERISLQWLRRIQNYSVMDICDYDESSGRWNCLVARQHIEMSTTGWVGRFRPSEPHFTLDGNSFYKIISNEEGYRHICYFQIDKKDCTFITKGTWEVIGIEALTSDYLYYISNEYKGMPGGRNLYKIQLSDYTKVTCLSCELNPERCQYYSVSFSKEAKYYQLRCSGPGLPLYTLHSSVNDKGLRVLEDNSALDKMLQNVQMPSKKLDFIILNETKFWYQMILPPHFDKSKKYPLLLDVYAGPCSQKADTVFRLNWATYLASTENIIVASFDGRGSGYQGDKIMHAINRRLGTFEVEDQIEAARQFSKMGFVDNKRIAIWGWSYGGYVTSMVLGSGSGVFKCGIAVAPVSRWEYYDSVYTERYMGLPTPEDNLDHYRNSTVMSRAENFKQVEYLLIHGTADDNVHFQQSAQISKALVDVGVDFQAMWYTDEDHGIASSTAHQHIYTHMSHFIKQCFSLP

For the compound `CC(C)[C@H](N)C(=O)N1CCC[C@H]1B(O)O` [Val-Boro-Pro], the hematopoiesis entry with hematopoiesis was “stimulated hematopoiesis”.
Regarding diprotin A, at DPP-4, the “degradation of GRF in plasma to GRF[3-44]” value was “prevented”.
